From US10376520B2, “Methods for the treatment of cardiovascular disorders” (Galapagos NV, priority 2015, dated 2019)

Key:
[1] = test system: RA patients; test: Disease Activity Score 28 (DAS28(CRP)), Study 2; format: in vivo, human
Excerpt: As used herein, the term ‘DAS28(CRP)’ refers to a clinical scoring ranging from 2.0 to 10.0 to measure the disease status at a given point in time, and thereby follow the progress and improvement of rheumatoid arthritis in a patient, and includes a 28 tender and swollen joint count, CRP measurement from blood analysis, and a general health assessment on a visual analog scale. A DAS28(CRP) value below 2.6 is indicative of remission, A DAS28(CRP) between 2.6 and 3.2 is indicative of low disease activity, between 3.2 and 5.1 is indicative of moderate disease activity, whereas a DAS28(CRP) above 5.1 is linked to high disease activity. (Wells et al., 2008)
Double-blind, placebo-controlled, monotherapy study in subjects with moderately to severely active RA who have an inadequate response to methotrexate (MTX) (oral or parenteral).
Twelve weeks of treatment with Compound 1 (dosed as a [Compound 1:HCl:3H2O]) at 50 mg, 100 mg, or 200 mg q.d.; or placebo. At Week 12, all subjects on placebo and the subjects on the 50 mg dose who have not achieved 20% improvement in swollen joint count (SJC66) and tender joint count (TJC68) will be assigned to 100 mg q.d. in a blinded fashion and will continue treatment until Week 24. Subjects in the other groups will maintain their randomized treatment until Week 24.
The (DAS28(CRP)) is a system developed and validated by the European League Against Rheumatism (EULAR) to measure the progress and improvement of rheumatoid arthritis and has been extensively validated (Wells et al., 2008). The DAS28(CRP) scoring includes a 28 tender and swollen joint count, CRP measurement from blood analysis, and a general health assessment on a visual analog scale (Fransen et al., 2003).
DAS28(CRP) values range from 2.0 to 10.0, and more particularly reflect the following status: • Remission: DAS28(CRP)≤2.6 • Low Disease activity: 2.6<DAS28(CRP)≤3.2 • Moderate Disease Activity: 3.2<DAS28(CRP)≤5.1 • High Disease Activity: DAS28(CRP)>5.1
In practice, the DAS28(CRP) measurement involves the evaluation 28 different joints including in the measurement (proximal interphalangeal joints (10 joints), metacarpophalangeal joints (10), wrists (2), elbows (2), shoulders (2), and knees (2)). When looking at these joints, both the number of joints with tenderness upon touching and swelling are counted.
Firstly, the patient is asked to make a vertical mark on a 100 mm Visual Analog Scale (VAS) corresponding to their general health or global disease activity. Using an electronic touchscreen, the mark is measured from the left-hand side in mm to obtain the VAS value, which is used in the formula below.
Secondly, a swollen and tender joint examination is then performed on the patient. The swollen and tender joints are recorded. From this examination are obtained the total amount of swollen joints (SJC) and the total amount of tender joints (TJC), which are used in the formula below.
Thirdly, C-reactive protein (CRP) levels (in mg/dL) are measured.
Finally, the values obtained above (VAS, JTC28, SJC28, and CRP) are computed into the following Formula to obtain the DAS28(CRP) score.
The number of subjects (N) provided in each groups corresponds to the number of patients starting the study in each group, and the DAS28 (CRP) data reported below corresponds to the responding patients continuing for the entire 24 weeks on their initial treatment course.

[2] = test system: RA patients; test: Plasma PCSK9 concentration (ELISA), Study 4; format: in vivo, human; conditions: for PCSK9 level, 4 weeks CFB: 4 weeks change from baseline
Protocol: Randomized double-blind, placebo-controlled add on study in subjects with active RA who have an inadequate response to MTX monotherapy, in combination with methotrexate, administered for 4 weeks in the treatment of subjects with active rheumatoid arthritis who have an inadequate response to methotrexate alone.
Compound 1 (dosed as a [Compound 1:HCl:3H2O]) capsules administered orally in 30 mg, 75 mg, 150 mg, or 300 mg doses per day for 4 weeks.
Plasma PCSK9 concentration was determined using a commercial available ELISA kit from R&D systems (614 McKinley Place NE, Minneapolis, Minn. 55413, USA) according to manufacturer's instruction. Catalogue number DPC900, lot number used: 321050.

Structure (SMILES): O=C(Nc1nc2cccc(-c3ccc(CN4CCS(=O)(=O)CC4)cc3)n2n1)C1CC1 [Compound 1, cyclopropanecarboxylic acid {5-[4-(1,1-dioxo-thiomorpholin-4-ylmethyl)-phenyl]-[1,2,4]triazolo[1,5-a]pyridin-2yl}-amide]
- DAS28(CRP) mean CFB (LOCF) - over 24 weeks ([1]; 50 mg q.d., Week 16): −1.88
- DAS28(CRP) mean CFB (LOCF) - over 12 weeks ([1]; 50 mg q.d., week 1): −0.70
- DAS28(CRP) mean CFB (LOCF) - over 24 weeks ([1]; 50 mg q.d., week 1): −0.75
- DAS28(CRP) mean CFB (LOCF) - over 12 weeks ([1]; 50 mg q.d., week 2): −0.97
- DAS28(CRP) mean CFB (LOCF) - over 12 weeks ([1]; 50 mg q.d., week 4): −1.37
- DAS28(CRP) mean CFB (LOCF) - over 24 weeks ([1]; 50 mg q.d., week 12): −1.75
- % patients reaching low disease activity and/or remission at week 24 (LOCF) ([1]; 100 mg q.d.): 50%
- DAS28(CRP) mean CFB (LOCF) - over 12 weeks ([1]; 100 mg q.d., week 1): −0.88
- DAS28(CRP) mean CFB (LOCF) - over 24 weeks ([1]; 100 mg q.d., week 1): −0.87
- DAS28(CRP) mean CFB (LOCF) - over 12 weeks ([1]; 100 mg q.d., week 4): −1.50
- DAS28(CRP) mean CFB (LOCF) - over 24 weeks ([1]; 100 mg q.d., week 12): −2.04
- DAS28(CRP) mean CFB (LOCF) - over 24 weeks ([1]; 100 mg q.d., week 16): −2.39
- DAS28(CRP) mean CFB (LOCF) - over 24 weeks ([1]; 200 mg q.d., week 8): −2.23
- DAS28(CRP) mean CFB (LOCF) - over 24 weeks ([1]; 200 mg q.d., week 20): −2.55
- PCSK9 level, 4 weeks CFB ([2]; 30 mg q.d.): 6.8%
- PCSK9 level, Baseline ([2]; 30 mg q.d.): 282.1 ng/mL
- PCSK9 level, week 4 ([2]; 30 mg q.d.): 296.9 ng/mL
- PCSK9 level, 4 weeks CFB ([2]; 75 mg q.d.): 11.4%
- PCSK9 level, Baseline ([2]; 75 mg q.d.): 277.0 ng/mL
- PCSK9 level, week 4 ([2]; 75 mg q.d.): 292.4 ng/mL
- PCSK9 level, 4 weeks CFB ([2]; 150 mg q.d.): 11.6%
- PCSK9 level, Baseline ([2]; 150 mg q.d.): 264.4 ng/mL
- PCSK9 level, week 4 ([2]; 150 mg q.d.): 294.6 ng/mL
- PCSK9 level, 4 weeks CFB ([2]; 300 mg q.d.): 10.4%
- PCSK9 level, Baseline ([2]; 300 mg q.d.): 261.7 ng/mL
- PCSK9 level, week 4 ([2]; 300 mg q.d.): 291.2 ng/mL
